# According to patent US11364256B2, “Viral inhibition” (Monash University, priority 2020, dated 2022):
# System: SARS-CoV-2 clinical isolate Australia/VIC01/2020
# Assay: Multidose treatment of SARS-CoV-2 infected Vero/hSLAM or CALU-3 cells, viral load by real-time PCR
# Assay type: cell-based
# Settings: drug replaced at 8, 24, 32 and 48 h, Vero/hSLAM or CALU-3, MOI 0.01
# Experimental: Vero/hSLAM cells (FIG. 4, panels A/C) or CALU-3 (FIG. 4, panels B/D) cells were infected with SARS-CoV-2 clinical isolate Australia/VIC01/2020 (MOI=0.01) for 2 h prior to addition of vehicle (DMSO), Ivermectin (A/B) or Moxidectin (C/D) at the concentrations indicated in FIG. 4. Supernatant was harvested at 8, 24, 32 and 48 h and replaced with fresh media containing the same concentration of drug or DMSO. Samples were quantitated for viral load using real-time PCR. Results represent mean±SD (n=6) relative to DMSO alone under the same conditions. Three parameter dose response curves were fitted using GraphPad prism. The data presented in FIG. 4 are single typical graphs from a series of two similar experiments.
substance,measurement,value
ivermectin,effect of multidose treatment on SARS-CoV-2 anti-viral activity,enhances SARS-CoV-2 anti-viral activity compared to single treatment
